{"source": "patent EP4635565A1", "about": "“PRENYLATED TETRAHYDROQUINOLINES AND QUINOLINES WITH PPAR AGONIST ACTIVITY” (Fundación para la Investigación del Hospital Clínico de la …, priority 2024, dated 2025)", "key": {"[1]": {"system": "Pdk4", "test": "Pdk4 mRNA expression by RT-qPCR in L929sA WT cells", "format": "cell-based, mouse", "details": "10 µM, 6 h", "description": "(§1) RNA was isolated using the RNeasy Purification Kit (Qiagen) according to the manufacturer's instructions. cDNA was synthesised using a PrimeScript kit (Takara). RT-qPCR was performed using Light Cycler 480 SYBR Green I Master Mix (Roche).\nPyruvate Dehydrogenase Kinase 4 gene (Pdk4), a well-known target gene of PPARs, encodes a protein that regulates the phosphorylation and inactivation of the pyruvate dehydrogenase complex in response to physiological conditions. This response switches the energy source from glucose to fatty acids to maintain blood glucose levels to, thereby, increase lipid metabolism. Because it is a well-known target gene of PPARs, the effect of the 2- and 3-prenylated esters of tetrahydroquinolines and quinolines on a Pdk4 region reported to bind PPARα, was evaluated. The L929sA cells that were stably transfected with a PDK4-(PPRE)3-Luc+ reporter gene construct were used."}, "[2]": {"biological_target": "T1, hPPARγ (Homo sapiens, UniProt P37231)", "T1 sequence (P37231 238-505)": "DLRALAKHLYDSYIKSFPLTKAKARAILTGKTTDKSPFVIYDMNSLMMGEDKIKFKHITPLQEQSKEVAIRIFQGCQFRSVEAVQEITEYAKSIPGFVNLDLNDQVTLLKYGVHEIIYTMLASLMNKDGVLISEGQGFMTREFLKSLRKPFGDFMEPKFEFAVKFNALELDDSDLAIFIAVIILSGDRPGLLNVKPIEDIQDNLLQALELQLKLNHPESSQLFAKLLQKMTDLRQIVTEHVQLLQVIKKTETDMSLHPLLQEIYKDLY", "test": "PPAR transactivation assay, human chimeric PPAR/Gal4 reporter luciferase system in Cos-7 cells (PPARγ)", "format": "cell-based", "description": "Transfections were stopped after 16 h by adding DMEM/10% FCS. Cells were detached with trypsin, re-seeded in 96-well plates for 6 h in DMEM/10% FCS, and incubated for 24 h in DMEM/0.2% FCS with increasing concentrations of the test compounds or vehicle (DMSO, 0.1% final concentration). At the end of the experiment, cells were washed once with ice-cold PBS, lysed, and luciferase and β-galactosidase activities were measured. Luciferase activity was normalised to that of the internal control, β-galactosidase. All transfection experiments were performed at least five times.\nEC50 values against human PPARα/Gal4, PPARβ/δ/Gal4 and PPARγ/Gal4 receptors."}, "[3]": {"system": "TNFα-induced proinflammatory genes", "test": "TNFα-induced pro-inflammatory gene expression by RT-qPCR in L929sA WT cells", "format": "cell-based, mouse", "details": "10 µM for 1 h, then TNFa, total induction time 6 h", "description": "as §1\nPPARs play crucial roles in controlling inflammatory responses. NF-κB is a transcription factor that plays a pivotal role in the expression of multiple genes involved in the immune and inflammatory responses. To study the potential anti-inflammatory effects of the tetrahydroquinolines and quinolines of the invention, the NF-κB-dependent physiological human IL-8 promoter construct, p1481.IL8P-Luc+, which is stably integrated into L929sA cells, was tested. After transfection, cells were treated at 10 µM with 5a, 5b, 8a, or 8b prior to TNFa stimulation. […] Given the significant decrease in NF-κB-IL8P-Luc+ reporter gene activity observed after treatment with the 2- or 3-prenylated tetrahydroquinolines 5a and 5b and the 3-prenylated quinoline 8b, their potential anti-inflammatory effects at the transcriptional level for other inflammatory mediators was evaluated. To achieve this, the L929sA WT cells were treated with 5a, 5b and 8b at 10 µM for 1 h, followed by TNFa stimulation for a total induction time of 6 h. The expression of inflammatory genes was evaluated by RT-qPCR."}, "[4]": {"system": "ob/ob mice", "test": "Gene expression (qPCR) in liver and epididymal white adipose tissue of ob/ob mice", "format": "in vivo", "details": "epididymal white adipose tissue and/or liver of ob/ob mice, 10 mg/kg/day, 15 days orally", "description": "(§2) Animal studies were carried out in accordance with Directive 2010/63/EU for experimentation on animals. The handling of the animals and the experimental protocols were approved by the Animal Experimentation Ethics Committee of the University of Valencia (Protocol No. A1469445706311). Six-week-old male ob/ob mice (C57BL/6.Cg-Lepob/J) were supplied by Charles River Laboratories International (Wilmington, MA). Blood samples were collected from mice fasted for 6 hours to determine basal blood glucose levels. The animals, randomly divided into two groups (N ≈ 10-11 per group), were treated daily with vehicle (1% hydroxyethyl cellulose, Sigma-Aldrich) or with tetrahydroquinoline 5a at 10 mg/kg/day, for 15 days orally. After 15 days of treatment, and 6 h of fasting, the mice were anesthetized by inhalation of isoflurane and blood samples were collected in tubes with heparin or EDTA by intracardiac puncture. Plasma samples were obtained and stored at -80°C. Liver and epididymal white adipose tissue were removed and part of both organs were quickly frozen in liquid N2 for qPCR studies.\nGene expression analysis was carried out by real-time qPCR. To this end, total RNA was extracted from liver and epididymal white adipose tissue biopsies using TRIzol reagent (Invitrogen, Carlsbad, CA, USA). The isolated RNA was retro-transcribed using the Maxima First-Strand kit and amplified with a Luminaris Color qPCR MasterMIX (Fermentas, Whaltham, MA, USA) in a 7900 FastSystem thermal cycler. The mRNA levels were normalized to the expression of the constitutive gene cyclophilin."}, "[5]": {"system": "ob/ob mice", "test": "In vivo study in ob/ob mice, biochemical analysis of blood", "details": "orally, 10 mg/kg/d, 15 days", "description": "as §2\nPlasma levels of total cholesterol and HDL-cholesterol (HDL-c) were determined by enzymatic processes using commercial kits: LabAssay™ Cholesterol (Wako Pure Chemicals Industries, Cape Charles, VA) and Mouse HDL-Cholesterol Assay Kit (Crystal Chem, Elk Grove Village, IL), respectively. Non-HDL cholesterol levels were calculated (total cholesterol - HDL-c). Fasting blood glucose levels were measured using a glucometer (Contour Next, Bayer HealthCare Pharmaceuticals LLC, Berlin, Germany), while insulin levels were determined using the commercial Mouse Insulin ELISA kit (Mercodia, Uppsala, Sweden). The HOMA-IR index was calculated using the following formula: fasting blood glucose (mmol/L) * fasting insulinemia (µU/mL) / 22.5.\nTetrahydroquinoline 5a administered for 15 days (orally, 10 mg/kg/d) to an obese and diabetic mouse model (ob/ob), improved lipid and carbohydrate parameters. Indeed, 5a decreased total cholesterol and non-HDL cholesterol levels, as well as insulin levels and the HOMA-IR index in the blood of oblob mice, compared to vehicle-treated mice (Figures 4A-4D)."}, "[6]": {"details": "compared to vehicle-treated mice"}}, "data": [{"compound": "CCOC(=O)CC/C(C)=C/CCC1CCc2cc(OCc3ccccc3)ccc2N1C", "note": "(stereo not shown) [Compound 5a, Ethyl (E)-7-(6-(benzyloxy)-1-methyl-1,2,3,4-tetrahydroquinolin-2-yl)-4-methylhept-4-enoate]", "values": [{"measurement": "expression of Pdk4 mRNA", "setting": "[1]", "result": "increased expression levels of Pdk4"}, {"measurement": "Emax at 10 µM", "setting": "[2]; COS-7, read-out: Efficacy (%) at 10 µmol/L PPARγ", "result": 43, "unit": "%"}, {"measurement": "EC50", "setting": "[2]; human PPARγ/Gal4, Cos-7 cells, concentration range 0.001-10 µmol/L, NA: not active", "result": 2700, "unit": "nM"}, {"measurement": "transcription of TNFα-induced proinflammatory genes", "setting": "[3]", "result": "downregulated the transcription of TNFα-induced proinflammatory genes such as Cc/5 and II-6"}, {"measurement": "expression of Acox1", "setting": "[4]", "result": "increased"}, {"measurement": "expression of Cpt1a", "setting": "[4]", "result": "increased"}, {"measurement": "expression of Pdk4", "setting": "[4]", "result": "increased"}, {"measurement": "levels of hepatic transaminase ALT", "setting": "[5]", "result": "did not increase"}, {"measurement": "levels of hepatic transaminase AST", "setting": "[5]", "result": "did not increase"}, {"measurement": "HOMA-IR index", "setting": "[5]; compared to vehicle, calculated from fasting glucose and insulin", "result": "decreased"}, {"measurement": "non-HDL cholesterol levels", "setting": "[5]; compared to vehicle, total cholesterol - HDL-c", "result": "decreased"}, {"measurement": "insulin levels", "setting": "[5]; [6]", "result": "decreased"}, {"measurement": "total cholesterol levels", "setting": "[5]; [6]", "result": "decreased"}]}]}
